Measurements published in PubChem BioAssay (NCI).
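Grown in 96-well plates, cells were treated for 48 hours with each compound at five concentrations. Insufficient inhibition: endpoint recorded as highest concentration tested. Definition used: TGI = concentration required for complete inhibition of growth.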

Columns and labels:
Assay in all cases: NCI tumour cell line growth inhibition, 48 h
[1] = test system: PC-3 prostate
[2] = test system: RPMI-8226 leukemia
[3] = test system: HCT-116 colon
[4] = test system: HL-60(TB) leukemia
[5] = test system: IGROV1 ovarian
[6] = test system: OVCAR-4 ovarian
[7] = test system: SNB-75 CNS
[8] = test system: UACC-257 melanoma
[9] = test system: BT-549 breast
[10] = test system: DU-145 prostate
[11] = test system: MALME-3M melanoma
[12] = test system: HCT-15 colon
[13] = test system: TK-10 renal
[14] = test system: NCI/ADR-RES ovarian
[15] = test system: U251 CNS
[16] = test system: OVCAR-8 ovarian
[17] = test system: 786-0 renal
[18] = test system: UACC-62 melanoma
[19] = test system: M14 melanoma
[20] = test system: T-47D breast

Measured: TGI

C=CCn1c(=O)c(-c2ccccc2)c(O)c2ccccc21
not listed: [18] | [19] | [20]
> 100 µM: all other assays above

N#C/C(=C/NC(=S)Nc1ccc(S(N)(=O)=O)cc1)C(N)=O
not listed: [14] | [20]
> 100 µM: all other assays above

CC(C)(C)C(=O)Cc1cc2c(cc1C(=O)O)S(=O)(=O)NC(C(C)(C)C)=C2
not listed: [1] | [5] | [9] | [10] | [12] | [14] | [20]
> 100 µM: all other assays above

CC(C)(C)C(=O)C(C#N)C(=O)C(C)(C)C
not listed: [9] | [18]
> 100 µM: all other assays above

Clc1ccc(CCn2ccc3ccccc32)c(Cl)c1
not listed: [20]
> 100 µM: all other assays above

CCCCCCCCCCCCCCCCCc1nc(C#N)c(N)o1
51.8 µM: [16]
69.6 µM: [4]
36.4 µM: [5]
70.2 µM: [7]
52 µM: [2]
not listed: [6] | [9] | [11] | [14] | [20]
> 100 µM: all other assays above

O=C(c1ccccc1)c1cc(-c2ccccc2)c(-c2ccccc2)[nH]c(=O)c1=O
53.1 µM: [9]
40.4 µM: [4]
60 µM: [2]
82.2 µM: [18]
not listed: [7] | [10] | [20]
> 100 µM: all other assays above
